Measured values taken from PMC6245189 (Molecules, 2008).

Experiments:
[1] = molecular target: T1, bovine testes hyaluronidase (BTH) (Bos taurus, UniProt Q2YDK3); test: Morgan-Elson assay at pH […]; type: biochemical; settings: read-out: IC50 [μM] / 3.5
T1 sequence (Q2YDK3 36-553): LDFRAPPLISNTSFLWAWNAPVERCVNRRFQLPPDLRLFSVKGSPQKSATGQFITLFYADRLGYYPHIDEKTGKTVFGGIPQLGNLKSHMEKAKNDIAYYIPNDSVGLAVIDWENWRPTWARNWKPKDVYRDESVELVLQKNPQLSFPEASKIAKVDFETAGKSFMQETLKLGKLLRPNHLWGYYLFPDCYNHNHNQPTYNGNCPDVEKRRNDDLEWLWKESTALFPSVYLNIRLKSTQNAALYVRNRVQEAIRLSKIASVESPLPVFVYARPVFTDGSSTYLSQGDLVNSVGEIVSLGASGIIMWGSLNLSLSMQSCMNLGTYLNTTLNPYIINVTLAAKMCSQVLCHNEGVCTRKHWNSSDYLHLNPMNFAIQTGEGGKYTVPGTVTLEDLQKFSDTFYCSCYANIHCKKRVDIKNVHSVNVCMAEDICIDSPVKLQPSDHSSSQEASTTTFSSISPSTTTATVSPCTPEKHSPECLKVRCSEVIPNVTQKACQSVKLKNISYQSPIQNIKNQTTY

[2] = molecular target: T1, bovine testes hyaluronidase (BTH); test: stains-all assay at pH […] and Morgan-Elson assay at pH […]; type: biochemical; settings: read-out: IC50 [μM] / pH7

| IC50 [1] | IC50 [2] | SMILES |
| --- | --- | --- |
| 8 µM |  | CCCCCCCCCCCCCCCC(=O)OC[C@H](O)[C@H]1OC(=O)C(O)=C1O [6-palmitoyl-L-ascorbic acid] |
|  | 107 µM | Oc1ccc(-c2[nH]c3ccccc3c2-c2ccccc2)cc1 [compound 12, 4-(3-Phenyl-1H-indol-2-yl)phenol] |
